The results in this text go back to patent US8916571B2, “Methods of treating cancer using inhibitors of 5′-methylthioadenosine phosphorylase” (Albert Einstein College of Medicine of Yeshiva University, priority 2006, dated 2014).

“Also recorded” adds a separate entry of the source.

Data set [1] relates to normal human fibroblast cells (GM02037). Nature of the data set: Cytotoxicity on normal human fibroblast cells. The class given is cell-based. The conditions noted are these: GM02037 cells treated with compound and MTA for 3 weeks. The protocol:
In order to determine whether the inhibition is selective for malignant cells, normal human fibroblast cells (GM02037) were also treated with compound (2) and MTA for 3 weeks. […] This selectivity is a further indication that the MTAP inhibitors described above are useful agents for the treatment of head and neck cancer.

The next data set has as its system SCC25 cells. The data set is described as follows: Time dependent proliferation of SCC25 cells (WST-1 assay). The conditions noted are these: 1 μM compound + 20 μM MTA. The class given is cell-based, human. The protocol: (§1) SCC25 cells were maintained in MEM Eagle's media supplemented with 10% fetal bovine serum, 100 units/ml penicillin, 100 μg/mL streptomycin, 0.1 mM non essential amino acids and 1 mM sodium pyruvate. Cell survival was evaluated using the WST-1 assay (Kicska G A, long Li, Hong H, et al. Proc Natl Acad Sci USA 2001; 98:4593-98). Cells were seeded onto 96 well plates at a density of 10^4 cells per well, with either no additions, 1 μM MT-compound (2), 20 μM MTA or 1 μM compound (2)+20 μM MTA. IC50 was determined following the manufacturer's protocol (Roche Applied Science, Ind.). Cells were grown and measured in triplicate or quadruplicate and the error bars show the mean±SD of the multiple samples.

Another data set deals with liver polyamine levels. The data set is described as follows: Short-term treatment of mice, liver polyamine analysis. In kind it is in vivo, mouse. The conditions noted are these: short-term treatment (24, 48 hours, 7 days), 100 μM in drinking water. The protocol:
C56BI/6 mice were treated with 100 μM compound (2) via their drinking water and sacrificed at 24, 48 hours, and 7 days. Livers were immediately removed for polyamine analysis. TRAMP mice were treated approximately 6-8 months with 100 μM compound (2) via their drinking water and control sacrificed. Livers were removed for polyamine analysis.
Spent media and perchloric acid extracts of both PC3 cells and tissue samples were subjected to purification via cation exchange chromatography and dansyl-derivatized with minor changes. Disposable 10 ml BIO-RAD columns were centrifuged at 4,000 rpm for 3 minutes. Sodium carbonate used for derivatization was adjusted to pH 9.3 and the concentration of dansyl-chloride was adjusted to 100 mM. Dansyl-polyamines were quantitated by a Waters HPLC/Fluorescence system. A Phenomenex Luna 5μ C18 column was used with a mobile phase of 30% acetonitrile in a 50 mM ammonium acetate buffer at pH 6.8 (eluent A) and 100% acetonitrile (eluent B). Fluorescence detection was monitored by excitation at 338 nm and emission at 500 nm.
Short-Term: Mice were treated with sterile solutions of 100 μM compound (2) (pH ˜6.4). Water bottles were autoclaved prior to filling with sterile inhibitor solutions. Mice were sacrificed at 1, 2, and 7 days, with three mice in each group, with the control group sacrificed after 7 days. […]

In data set [2] the test system is FaDu cells. Nature of the data set: Time dependent proliferation (WST-1) and phase contrast microscopy of FaDu cells. In kind it is cell-based, human. The method, then:
as §1, with “FaDu” for “SCC25”, “Honig” for “Hong”, “compound” for “MT-compound”, “MTA,” for “MTA.”
FaDu cells were subjected to six days in culture using the same conditions described as for Example 4.
In general terms: Formazan colour is commonly taken as a measure of viable cells.

A further data set deals with FaDu xenografts. Nature of the data set: FaDu xenograft study in NOD-SCID mice. The class given is in vivo, mouse. The protocol: NOD-SCID mice (6-8 weeks old) were obtained from Jackson Laboratory (Bar Harbor, Me.). FaDu cells (10^6) were inoculated into the dorsum of the hind foot. After 5 days, mice were treated with 9 mg/kg or 21 mg/kg body weight of compound (2) in drinking water or by daily i.p. injections of 5 mg/kg body weight of compound (2). After inoculation mice were assigned to treatment or control groups (n=5). Tumor volume (V) was determined from: V=(4/3)*(22/7)*1/8*(length*width*height). Differences between treatment cohorts were determined using the Student's t test. Mice were weighed every 4-5 days, monitored for hair loss, loss of appetite, vomiting and diarrhea. Total and differential blood and bone marrow analyses were performed after treatment with compound (2).

Another data set deals with PC3 cells. Nature of the data set: Clonogenic survival assay of PC3 cells. In kind it is cell-based, human. The conditions noted are these: combination treatment with MTA, approximately 2 weeks. The method, then: • 1. 60% confluent plates of experimental cell line was taken and subjected to trypsinization • 2. Single cell suspension of the experimental cell line was made in the regular growth medium and number of cells per mililiter of suspension counted • 3. A fixed low number of cells were plated out in a volume of 3 ml of growth medium in each well of 6 well culture dishes and incubated overnight at 37° C. in a CO2 incubator • 4. Measured volumes of the inhibitor and substrate solutions in sterile deionised cell culture water was added to each well of the 6 well plates. Typically each concentration of inhibitor and/or substrate was added in triplicate wells to calculate error bars. […] At the end of the period of incubation growth medium was removed from each well, attached cells were washed once with PBS and fixed by addition of […] Formalin solution to each well and keeping at room temperature for ˜1 hour. • 7. […] Number of crystal violet stained colonies in each well containing more than 60 cells per colony was counted. • 10. Assuming each colony originated from a single surviving cell post-treatment and taking the number of colonies in the untreated control well as 1, the fraction of surviving cells in each well was calculated and plotted in a graph. […]

For data set [3], the system named is FaDu cells. Nature of the data set: Cell cycle and apoptosis analysis of FaDu cells (propidium staining, FACS). The conditions noted are these: in combination with MTA. The class given is cell-based, human. The method, then: as §1, with “FaDu” for “SCC25”, “Honig” for “Hong”, “compound” for “MT-compound”, “MTA,” for “MTA.”
FaDu cells were subjected to six days in culture using the same conditions described as for Example 4, before staining with propidium […] and FACS cell sorting analysis.

Regarding `CSC[C@H]1CN(Cc2c[nH]c3c(N)ncnc23)C[C@@H]1O` [compound (2)], the cytotoxicity entry in data set [1] is “No cytotoxicity was observed”. For the same molecule, the cell proliferation result in the data set on SCC25 cells and in the data set on FaDu cells [2] (1 μM compound + 20 μM MTA) was “reduces cell proliferation” each time. The “polyamine levels of mice livers” value in the data set on liver polyamine levels is recorded as “not significantly altered”. The “cell growth (phase contrast photographs)” value with FaDu cells [2] (5 days, inhibitor compound + MTA) was “effective in inhibiting cell growth”. For the same molecule, in the data set on FaDu xenografts (28 days after end of 28 day therapy, two highest doses), the “regrowth of tumor after treatment removed” value is “no regrowth of tumor”. The “animal weight, total and differential blood counts vs control” value in the data set on FaDu xenografts (NOD-SCID mice, after 28 day treatment) is listed as “No significant differences”. The “growth of established FaDu xenografts” value in the data set on FaDu xenografts (NOD-SCID mice, oral or i.p., with or without MTA) was “significantly slower than in controls; also recorded: significantly delays the growth”. Further, the “effect on PC3 cells in clonogenic assay” value in the data set on PC3 cells was “cytostatic effect”. Besides, the “stopping cell cycling / apoptosis” value in the data set with FaDu cells [3] is recorded as “effective for stopping cell cycling”.
